The subject of series [1] is APP processing in N2A-APPswe cells. As to the kind of experiment: Immunoblot of APP processing in N2A-APPswe cells. The class given is cell-based. The source says:
Reagents: All reagents were of analytical grade (purity > 98%) and were purchased from Sigma-Aldrich Chemical Co. unless otherwise specified. SSG (1) was purchased from Wako Pure Chemical Industries, Ltd. Diosgenin (6), Dioscin (9), Polyphyllin D (10), Timosaponin BI (22) and Timosaponin BII (23) were purchased from Chengdu Must Bio-Technology Co.
Ltd. Yamogenin (7) was bought from Ambinter c/o Greenpharma while Smilagenin (24) was bought from Steraloids Inc. Substances dissolved in DMSO as stock solutions. Cell culture medium constituents were purchased from Life Technologies, Inc.
Cell culture: Neuro-2A cells expressing Swedish mutants of APP (N2A-APPswe provided by Prof. Yifan Han, The Hong Kong Polytechnic University)1 was cultured in minimal essential medium with 2 mM glutamine, 2 mM pyruvate and 10% fetal bovine serum. Cells were seeded at 6-well plate at 1×106 cells/mL and grown for two days until confluence. […]
Immunoblot analysis: Cells were washed with phosphate buffered saline and lysed with buffer containing 50 mM Tris-Cl, pH 7.4, 150 mM NaCl, 1% Triton X-100 supplemented with protease inhibitors. Equal amount of proteins (30 µg) was resolved by 16.5% Tris-tricine gels and then transferred to nitrocellulose membrane with 0.2 µm pore size. For detection of secreted Aβ, sAPPα and  sAPPβ, cells were treated with the timosaponins for 8 h in complete medium which were then replaced with medium containing 0.1% FBS. After further incubation of 16 h, 50 µL of the conditioned medium was mixed with SDS sample buffer and resolved accordingly. The membrane was blocked with Tris-buffered saline containing 0.1% Tween 20 and 3% BSA and then incubated with primary antibodies at 4 °C overnight, followed with appropriate secondary antibodies for 2 h. The primary antibodies were: APP c-terminal rabbit antibody (1:5000; Merck Bioscience) for detection of full length APP and APP-CTFs, mouse monoclonal 6E10 (Covance) for secreted Aβ and sAPPα,  mouse monoclonal 6A1 (IBL) for sAPPβswe, ADAM-10 rabbit antibody (Millipore) and BACE1

Series [2] concerns the target T1, β-secretase (Mus musculus, UniProt P56818).
T1 construct: endogenous in cells; host or cells: N2A-APPswe (Neuro-2A stably expressing APP Swedish mutant)
The series can be described thus: β-Secretase assay in N2A-APPswe cell protein extracts. It counts as biochemical. The method, then:
β-Secretase assays: Confluent N2A-APPswe cells were harvested and homogenized with 50
mM MES, pH5.5. Protein extracts (10 µg) were incubated with testing compounds or vehicle
for 1 h at room temperature. […]

The nature of series [3]: Plasma and brain concentrations by LC-MS/MS. It counts as in vivo, mice. To be noted: for Plasma Precursor: mice n = 6, three repeated oral doses 100 mg/kg in two days. The method, then:
Animal experiments: Male C57BL/6N mice were housed in environmentally controlled room (temperature: 25 ± 2 °C, humidity: 50 ± 5%, 12-h light-dark cycle) in Laboratory Animal Unit, The University of Hong Kong and were freely access to food and water. TAIII, TAI SSG and compound 34 were dissolved in 5% Tween 80 and given to the mice by oral gavage at three repeated doses of 100 mg/kg in 48 hours. Mice were administrated with 5% Tween 80 (control group), TAIII, TAI SSG and 34. The experimental procedures were performed with the approval of Committee of Use of Live Animal for Teaching and Research of The University of Hong Kong. Blood (about 600-800 µL) was collected by cardiac puncture and added with 1/10 volume of Na2EDTA (20 mg/mL) to prevent coagulation. After centrifugation at 3000 g for 15 min at 4 °C, plasma was transferred to a centrifuge tube. The brain was dissected into two hemispheres on ice, weighed and frozen in liquid nitrogen immediately. The left brain was homogenized with 1 mL of buffer containing 5 M guanidine HCl, 50 mM Tris HCl, pH 8.0, with protease inhibitor cocktail and AEBSF using a Polytron and the homogenates were allowed to stand at room temperature for 3h. Both plasma and brain samples were stored at -80 °C until they were analyzed. […]
B. Determination of timosaponin levels in mice plasma and brain by ultra-high pressure liquid chromatography tandem mass spectrometry
The UPLC-ESI-QTOF consists of a Waters Q-TOF PremierTM mass spectrometer (Micromass MS Technologies, Manchester, UK) operated in positive ion mode and a Waters ACQUITY TM UPLC system. The mass spectrometer conditions were optimized as follows: source […]
temperature, 120 °C; desolvation temperature, 500 °C; nebulization gas flow rate, 1000 L/h; cone gas flow rate, 20 L/h; capillary voltage, 2.5 kV; sampling cone voltage, 28V. The data were collected into two separate data channels with the instrument spending 0.5 s on data acquisition for each channel and a 0.1 s inter-channel delay. The mass spectrometer was calibrated by using the solution of sodium formate (0.5 mM) and the TOF scan range was from 100 to 1000 Da. In order to improve mass measurement accuracy a lock mass compound (50 pg µL−1 solution of leucine encephalin; m/z 556.2771) was continuously infused at a 0.5 mL min-1 using the built-in syringe pump of the instrument.
Sample was loaded into a Waters ACQUITY TM BEH C18 column (100 × 2.1 mm i.d., 1.7 µM) connected to a Waters ACQUITY TM BEH C18 guard column (5 × 2.1 mm i.d., 1.7 µM). The gradient elution system consisted of 0.1% formic acid in water (A) and 0.1% formic acid in acetonitrile (B). Separation was achieved by using: 30%-55% B from 0 to 3 min; 55-100% B from 3 to 6 min; 100% B from 6 to 12 min and returned to initial conditions and equilibrated for 3 minutes. The flow rate was 0.3 mL/min and the injection volume was 5 µL.
Standard preparation and sample preparation
Stock solution (10 µM ) of each analyte was prepared by dissolving in methanol. They were subject to serial dilution to give calibration curves of SSG 1 (plasma: y = 8.7485× - 0.0676; […]
each concentration of each analyte was transferred to a centrifuge tube and evaporated to dryness by a concentrator. Dioscin (20 µL , 10 µM) was added as an internal standard followed by methanol (130 µL) and control plasma (50 µL). The mixture was vortexed for 5 s and centrifuged (15000 × g) for 15 min. The supernatant was collected and evaporated to dryness by a concentrator. Methanol (100 µL) was added and then vortexed again for 10 s and centrifuged (15000 × g) for 20 min. The supernatant (5 µL) was subject to LC-MS/MS analysis. Analyte-treated plasma, control brain and analyte-treated brain were prepared in a […]
The acquisition and processing of data were performed by Masslynx (version 4.1) software.
Mass window of ±10 mDa and mass resolution of 9000 were set for both molecular ions and product ions. MS full scan was applied to acquire high abundant molecular ions [M+H]+ with […]

Setting [4] is: any metabolite, mice n = 6, three oral doses 100 mg/kg in two days.
Setting [5] is: mice n = 6, three oral doses 100 mg/kg in two days.

T1 sequence (P56818 46-501): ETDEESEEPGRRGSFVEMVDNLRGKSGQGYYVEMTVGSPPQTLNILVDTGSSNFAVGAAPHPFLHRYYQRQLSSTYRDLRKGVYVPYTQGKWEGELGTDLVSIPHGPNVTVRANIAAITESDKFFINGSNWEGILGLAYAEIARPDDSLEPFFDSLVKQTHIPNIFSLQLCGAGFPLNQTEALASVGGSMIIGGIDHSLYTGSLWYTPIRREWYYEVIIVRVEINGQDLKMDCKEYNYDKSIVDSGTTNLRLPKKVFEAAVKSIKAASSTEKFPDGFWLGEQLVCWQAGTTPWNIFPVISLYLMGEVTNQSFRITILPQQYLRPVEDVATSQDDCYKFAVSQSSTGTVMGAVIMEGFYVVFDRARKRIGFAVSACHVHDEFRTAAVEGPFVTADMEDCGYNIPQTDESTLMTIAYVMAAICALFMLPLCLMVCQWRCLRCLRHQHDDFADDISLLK

In the case of `C[C@H]1CC[C@@]2(OC1)O[C@H]1C[C@H]3[C@@H]4CC[C@@H]5C[C@@H](O)CC[C@]5(C)[C@H]4CC[C@]3(C)[C@H]1[C@@H]2C` [SSG (1), sarsasapogenin], in series [1] (100 μM), the sAPPα levels result is “marked increase”; the “α-CTF and β-CTF expression” value is “increased”. The “β-secretase activities in the cell extracts” value in series [2] was “no change”. Further, in series [3] (setting [4]), the “Brain Metabolite” value is recorded as “Not detected” and the “Plasma Metabolite” value is on record as “Not detected”. In addition, the “Brain Precursor” value in series [3] (setting [5]) worked out at 1.042 ± 0.418 µM. In addition, in series [3], the “Plasma Precursor” value came to 0.118 ± 0.062 µM.

Turning to `C[C@H]1CC[C@@]2(OC1)O[C@H]1C[C@H]3[C@@H]4CC[C@@H]5C[C@@H](O[C@@H]6O[C@H](CO)[C@H](O)[C@H](O)[C@H]6O)CC[C@]5(C)[C@H]4CC[C@]3(C)[C@H]1[C@@H]2C` [TAI (3), timosaponin A I], the “Brain Precursor” value in series [3] (setting [5]) turned out to be 1.174 ± 0.401 µM. For the same compound, in series [3], the “Plasma Precursor” value is given as 3.361 ± 0.925 µM.

`C[C@H]1CC[C@@]2(OC1)O[C@H]1C[C@H]3[C@@H]4CC[C@@H]5C[C@@H](O[C@@H]6O[C@H](CO)[C@H](O)[C@H](O)[C@H]6O[C@@H]6O[C@H](CO)[C@@H](O)[C@H](O)[C@H]6O)CC[C@]5(C)[C@H]4CC[C@]3(C)[C@H]1[C@@H]2C` [TAIII (2), timosaponin A III]: in series [1], the “expression of ADAM-10” value is “did not alter” and the “expression of the β-secretase BACE1” value is reported as “did not affect”. In addition, in series [1] (10 μM), the “α-secretase-cleaved CTF (C-83) and secreted APPα” value was “increased”. In addition, the “expression of full length APP” value in series [1] (18 h) is on record as “did not elicit a change”. For the same compound, in series [1] (concentration-dependent), the “levels of β-secretase-cleaved CTF (C-99) and secreted APPβ” value is on record as “decreased”. In series [2], the “β-secretase activities in the cell extracts” value is recorded as “did not affect”. Also, the “Brain Precursor” value in series [3] (setting [5]) was “Not detected”. Also, the “Plasma Precursor” value in series [3] was determined as 0.050 ± 0.058 µM.
